Measurements: ChEMBL document CHEMBL1138685, “Molecular recognition in purinergic receptors. 2. Diastereoselectivity of the h-P2Y1-receptor” (J Med Chem, 2004)

target: P2Y purinoceptor 1 (Homo sapiens) (UniProt P47900); experiment: Concenthumanion required for calcium mobilization at human purinergic 2Y1 receptor expressed in HEK 293 cells
Sequence (P47900 whole entry, looked up): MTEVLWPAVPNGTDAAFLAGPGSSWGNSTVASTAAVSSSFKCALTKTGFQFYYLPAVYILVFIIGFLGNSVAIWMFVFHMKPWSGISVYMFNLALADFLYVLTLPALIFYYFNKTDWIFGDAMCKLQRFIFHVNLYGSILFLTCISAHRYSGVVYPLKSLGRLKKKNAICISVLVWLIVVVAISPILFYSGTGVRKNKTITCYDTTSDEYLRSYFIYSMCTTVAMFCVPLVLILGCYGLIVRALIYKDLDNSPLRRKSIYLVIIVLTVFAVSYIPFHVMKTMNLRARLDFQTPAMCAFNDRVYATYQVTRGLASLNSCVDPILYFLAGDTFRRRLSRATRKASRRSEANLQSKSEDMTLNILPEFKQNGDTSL

EC50 [nM]	Structure (SMILES)
20	CSc1nc(N)c2ncn(C3O[C@H](CO[P@@](O)(=S)OP(=O)(O)OP(=O)(O)O)[C@@H](O)[C@H]3O)c2n1 (stereo partly specified)
1	CSc1nc(N)c2ncn(C3O[C@H](CO[P@](O)(=S)OP(=O)(O)OP(=O)(O)O)[C@@H](O)[C@H]3O)c2n1 (stereo partly specified)
53	BP(=O)(OC[C@H]1O[C@@H](n2cnc3c(N)nc(SC)nc32)[C@H](O)[C@@H]1O)OP(=O)(O)OP(=O)(O)O (stereo partly specified)
1	CSc1nc(N)c2ncn([C@@H]3O[C@H](COP(=O)(O)OP(=O)(O)OP(=O)(O)O)[C@@H](O)[C@H]3O)c2n1

Structure (SMILES)	EC50 [nM]
Nc1ncnc2c1ncn2C1O[C@H](CO[P@@](O)(=S)OP(=O)(O)OP(=O)(O)O)[C@@H](O)[C@H]1O (stereo partly specified)	75
Nc1ncnc2c1ncn2C1O[C@H](CO[P@](O)(=S)OP(=O)(O)OP(=O)(O)O)[C@@H](O)[C@H]1O (stereo partly specified)	9.4
